# According to paper PMC5675618, “Identification and validation of FGFR2 peptide for detection of early Barrett's neoplasia” (Oncotarget, 2017):
# What was measured:
# [1] = test system: sections of human esophageal squamous cell cancer (SCC); experiment: Confocal microscopy of staining of human esophageal squamous cell cancer (SCC) ex vivo
# From the text: We observed good co-localization of peptide and antibody binding on merged images, Supplementary Figure 5C. Representative histology (H&E) for SCC is shown, Supplementary Figure 5D. […] Representative histology (H&E) for normal stomach is shown, Supplementary Figure 5H.
# [2] = Fluorescence spectra of Cy5.5-labeled peptides; format: physicochemical; details: 10 μM in PBS, excitation λex = 671 nm
# From the text: We synthesized the 12 amino acid sequence SRRPASFRTARE (black) and attached the fluorophore Cy5.5 (red) via a GGGSK linker (blue) on the C-terminus, hereafter SRR^*-Cy5.5, Figure 1A. Cy5.5 was chosen for photostability and high quantum yield in the near-infrared (NIR) spectrum. We used a linker to prevent steric hindrance of the peptide by the dye. We then used a structural model (1EV2), [24] […] This domain is the same in either isoform FGFR2IIIb or FGFR2IIIc. We also used this model to develop a scrambled sequence SPSRERTFRARA for a control, Figure 1C. This peptide was also labeled with Cy5.5 via a GGGSK linker, hereafter SPS^*-Cy5.5. For SPS^*-Cy5.5, we calculated Et = −277.37. […] We purified SRR^*-Cy5.5 and […] to >97% on HPLC, and measured an experimental mass-to-charge (m/z) ratio on mass spectrometry of 2385.31 for both peptides that agreed with the expected value, Supplementary Figure 3.
# Figure 1 Peptide specific for FGFR2 Chemical structure is shown for 12 amino acid (aa) peptide sequence (A) SRRPASFRTARE (SRR^*) found to be specific for FGFR2, and (B) scrambled peptide SPSRERTFRARA (SPS^*) used for control. A Cy5.5 fluorophore (red) is attached via a GGGSK linker (blue) to prevent steric hindrance.
sequence,measurement,setting,value
SRRPASFRTARE [SRR^*-Cy5.5],"mean fluorescence intensity, SCC versus normal, SRR*-Cy5.5","[1]; P=5×10-21, paired two-sided t-test, 3 boxes of 30×30 μm2",significantly greater mean fluorescence intensity
same,"fluorescence intensity / binding, esophageal SCC","[1]; SCC sections ex vivo, n = 35 patients",strong fluorescence intensity
same,"staining, normal human esophagus","[1]; normal esophagus, comparison",minimal staining
same,peak emission λem,[2],710 nm
